The results in this text go back to patent US8481555B2, “Aza-bicyclic amine N-oxide compounds as alpha-7 nicotinic acetylcholine receptor ligand pro-drugs” (Bristol-Myers Squibb Company, priority 2010, dated 2013).

Where two headings read alike, the source gives them in different places.

The nature of data set [1]: Conversion of Compound B to Compound A in the rat (intra-duodenal infusion, portal vein sampling). The class given is in vivo, male Sprague-Dawley rats. To be noted: intra-duodenal infusion of Compound B 10 mg/kg, analyte as labelled; for AUC(0-t): 10 mg/kg; for AUC(0-t) / Cmax: fasted, PVC collection, plasma. On the procedure: (§1) The following section details the liquid chromatography with tandem mass spectrometry (LC/MS/MS)-based bioanalytical methods developed to support the analysis of the in vivo biological samples (brain, plasma, urine) from studies conducted in the dog and rat.
(§2) Sample Preparation: Blood, Plasma, Serum, Urine. Plasma and blood samples were prepared as described below. If dilutions were required, an aliquot of the sample was diluted into the respective matrix. For the analysis of urine samples, an aliquot was first diluted into blank plasma and then treated as described below.
(§3) Sample preparation was conducted manually or on a Packard MultiPROBE automated liquid handler. The internal standard (IS) solution (1000 nM (S,E)-5-bromo-N-(1′-azaspiro[oxazolidine-5,3′-bicyclo[2.2.2]octane]-2-ylidene)pyrazin-2-amine) was prepared in acetonitrile. Two hundred microliters of the IS solution was added to each well of a Strata protein precipitation filter plate (Phenomenex, Torrance, Calif.). Biological samples (60 μL) were added to the filter plate. The filter plate was attached atop a standard 96 well plate and the entire unit was centrifuged at 1100 rpm for 2 minutes. The supernatant was collected in the 96 well plate. Five microliters of each sample was injected onto the LC/MS/MS system for analysis.
(§4) Instrumentation. The UHPLC system used was an Agilent 1200 series (Agilent Technologies, Wilmington, Del.) coupled with CTC Analytics HTS PAL Auto Sampler (Leap Technologies, Carrboro, N.C.) that was equipped with a cooling stack so that samples were maintained at 10° C. during analysis. The analytical column used was a Waters Acquity HSS T3 (2.1×50 mm, 1.8 um particles) at 60° C. The mobile phase, which consisted of 0.1% formic acid in water (A) and 0.1% formic acid in acetonitrile (B), was delivered at a flow rate of 0.6 mL/min.
(§5) The UHPLC was interfaced to an API4000 QTrap LC/MS/MS System® (AppliedBiosystems/MDS Sciex, Foster City, Calif.) equipped with an electrospray ionization interface operating in the positive ionization mode. The source temperature was 500° C. Detection of each analyte was achieved through selected reaction monitoring. Ions representing the precursor (M+H)^+ species for Compound A, Compound B, and the IS were selected in quadrupole 1 and collisionally dissociated with nitrogen to generate specific product ions, which were subsequently monitored by quadrupole 3.
(§6) Standard Curve Ranges. Unless otherwise specified, the analysis of Compound A and Compound B were conducted against a standard curve ranging from 0.6 to 1,250 nM and 4.8 to 5,000 nM, respectively. The standard curve was fitted with a linear regression weighted by the square of the reciprocal concentration (1/x^2). Standards were analyzed in duplicate. Quality control samples were prepared in blank biological matrix at concentration levels within the range of the standard curve. The predicted concentrations of more than 80% of the QCs from various different matrices were within 20% of nominal values, indicating acceptable assay performance.
Conversion of N-oxide, Compound B, to Compound A in the rat. The conversion of Compound B to Compound A was evaluated in male Sprague-Dawley rats (260-280 g) Animals (N=3 per group) received Compound B as an intra-duodenal infusion (10 mg/kg over 10 minutes) via an indwelling intra-duodenal cannula (IDC) with collection via the intra-portal vein. Serial blood samples were obtained predose and at 0.17, 0.25, 0.5, 0.75, 1, 2, 4, 6, 8, and 24 hours post dose. Plasma samples, obtained by centrifugation at 4° C. (1500-2000×g), were stored at −20° C. until analysis.
All conversion studies in rats were performed in animals containing indwelling cannulas in the duodenum and portal vein. The studies were designed to isolate the role of the GI tract in the reduction of Compound B. Table IV summarizes the exposure of Compound B and Compound A in the portal vein following an intra-duodenal infusion of Compound B in the rat. […]

Data set [2] can be described thus: Conversion of Compound B to Compound A in the dog (IV infusion and oral gavage, crossover). The conditions noted are these: for AUC(0-t): analyte as labelled, read-out: AUC(0-24 h). The class given is in vivo, male beagle dogs. On the procedure:
as §1, §2, §3, §4, §5, §6
Conversion of N-oxide, Compound B, to Compound A in the dog. The conversion of Compound B to Compound A was evaluated in a crossover-design study in male beagle dogs. Three animals (5 to 8 kg) received Compound B by IV infusion (1 mg/kg over 5 minutes) via a cephalic vein and by oral gavage (5 mg/kg), with a 1-week washout between treatments. Serial blood samples (˜0.3 mL) were collected from a saphenous vein predose and at (0.083, 0.17 IV only), 0.25, 0.5, 0.75, 1, 2, 4, 6, 8, and 24 hours post dose, followed by centrifugation at 4° C. (1500-2000×g) to obtain plasma. Samples were stored at −20° C. until analysis by LC/MS/MS.
Table VI summarizes the PK parameters of Compound B and the appearance of Compound A following a single dose in dogs. Following either an IV or PO dose, the conversion of Compound B to Compound A was observed; however, it was more extensive after oral dosing. […]

Assay in data set [3]: as above
The class given is in vivo, male beagle dogs. The conditions noted are these: plasma.

Where [4] appears, read: male, Sprague-Dawley, in vivo, read-out: AUC(0-4).
Where [5] appears, read: male, Sprague-Dawley, in vivo, read-out: Plasma concentration in the portal vein.
The mark [6] stands for this setting: male, beagle, fasted, oral gavage of Compound B 5 mg/kg, plasma.
[7] abbreviates: male, beagle, fed, IV infusion of Compound B 1 mg/kg, plasma.
[8] abbreviates: fed, IV infusion of Compound B 1 mg/kg, plasma.

On to `c1ccc2cc(NC3=NC[C@@]4(CN5CCC4CC5)O3)ncc2c1` [Compound A, (R)—N-(isoquinolin-3-yl)-4H-1′-azaspiro[oxazole-5,3′-bicyclo[2.2.2]octan]-2-amine], for which the AUC(0-t) in data set [1] (setting [4]) came out at 1.22 ± 1.1 µM·h. Further, the AUC(0-t) in data set [1] (male, Sprague-Dawley, in vivo, read-out: AUC(0-24 h)) is 2.55 ± 1.93 µM·h. The peak level in data set [1] (male, Sprague-Dawley, in vivo) (Cmax) was 860 ± 340 nM. Also, in data set [1] (setting [5]), the concentration at 0.167 h came to 3 nM, the concentration at 0.25 h was found to be 7 nM, the concentration at 0.5 h was found to be 112 nM and the concentration at 0.75 h is 207 nM. Besides, in data set [1] (setting [5]), the concentration at 1 h was found to be 448 nM, the concentration at 2 h came out at 750 nM and the concentration at 4 h is 455 nM. In data set [1] (male, Sprague-Dawley, in vivo, 6 hours, read-out: Plasma concentration in the portal vein), the concentration at 6 h was 434 nM. In data set [1] (male, Sprague-Dawley, in vivo, 8 hours, read-out: Plasma concentration in the portal vein), the concentration at 8 h is 125 nM. In data set [1] (male, Sprague-Dawley, in vivo, 24 hours, read-out: Plasma concentration in the portal vein), the concentration at 24 h worked out at 6 nM. In addition, the “AUC of Compound A after IV Compound B as percent of the AUC of Compound A after IV administration of Compound A” value in data set [2] (IV) was about 3%. The “AUC of Compound A after PO Compound B as percent of the oral AUC of Compound A after PO Compound A alone” value in data set [2] (PO) is given as “roughly 40%”. Further, the AUC(0-t) in data set [2] (setting [6]) was 0.7 ± 0.2 µM·h. The AUC(0-t) in data set [2] (setting [7]) was 0.03 µM·h. Moreover, the AUC in data set [3] (male, beagle, PO dosing of Compound B (10 mg/kg as printed in text), read-out: plasma AUC of Compound A after PO dosing of Compound B) turned out to be 0.7 µM·h. For the same molecule, the AUC in data set [3] (PO administration of Compound A alone, read-out: oral AUC of Compound A following PO administration of Compound A alone) is 1.74 µM·h.

For the molecule `[O-][N+]12CCC(CC1)[C@]1(CN=C(Nc3cc4ccccc4cn3)O1)C2` [Compound B, (S)-2-(Isoquinolin-3-ylamino)-4H-1′-azaspiro[oxazole-5,3′-bicyclo[2.2.2]octane]1′-oxide], the “Plasma concentration in the portal vein” value in data set [1] (6 hours) is reported as “< LLQ”. The “Plasma concentration in the portal vein” value in data set [1] (8 hours) is on record as “< LLQ”. Moreover, in data set [1] (24 hours), the “Plasma concentration in the portal vein” value is “< LLQ”. In addition, the AUC(0-t) in data set [1] (setting [4]) came to 0.34 ± 0.04 µM·h. Further, the Cmax (commonly the highest concentration seen after dosing) in data set [1] (male, Sprague-Dawley, in vivo) was found to be 760 ± 240 nM. Further, in data set [1] (setting [5]), the concentration at 0.167 h came to 601 nM, the concentration at 0.25 h came out at 758 nM, the concentration at 0.5 h is 177 nM and the concentration at 0.75 h worked out at 90 nM. In addition, in data set [1] (setting [5]), the concentration at 1 h came to 69 nM, the concentration at 2 h was found to be 52 nM and the concentration at 4 h turned out to be 18 nM. In data set [2] (setting [8]), this molecule yielded a CLTp of 13.7 ± 4.0 mL/min/kg and a T-HALF of 9.4 ± 6.5 h. In data set [2] (setting [6]), the AUC(0-inf) (usually total exposure, with the tail of the curve extrapolated) was 5.69 ± 0.39 µM·h; the peak level (Cmax) was 850 ± 460 nM; the AUC(0-t) was 5.16 ± 0.68 µM·h. Besides, in data set [2] (setting [7]), the AUC(0-inf) came out at 3.94 ± 1.01 µM·h and the AUC(0-t) turned out to be 3.84 ± 0.92 µM·h. Further, the Vd in data set [2] (male, beagle, fed, IV infusion of Compound B 1 mg/kg, plasma, read-out: Vss) is 2 ± 0.2 L/kg. Besides, in data set [2] (male, beagle, plasma, fasted, oral gavage of Compound B 5 mg/kg), the bioavailability (as a rule, dose-corrected exposure relative to a reference, in per cent) stood at 27 ± 15%.
